Data as given in patent publication US20260258049A1, “Molecules and Methods Related to Treatment of Uncontrolled Cellular Proliferation” (ST. JUDE CHILDREN'S RESEARCH HOSPITAL, priority 2019, published 2026).
Where two headings read alike, the source gives them in different places.

What was measured:
[1] = tested on: Human CD45+ leukemic cells purified from patient derived xenografts (PDX)
MHH-CALL-4 = assay: Cytotoxicity assay (resazurin, 72 hours); format: cell-based, human
GSPT1 = target: T1, GSPT1 (Homo sapiens, UniProt P15170); assay: Immunoblot protein degradation in MHH-CALL-4 cells; format: cell-based
T1 construct: degradation of JAK2 and GSPT1 in MHH-CALL-4 cells; endogenous in cells; host or cells: MHH-CALL-4
T1 sequence (P15170 whole entry): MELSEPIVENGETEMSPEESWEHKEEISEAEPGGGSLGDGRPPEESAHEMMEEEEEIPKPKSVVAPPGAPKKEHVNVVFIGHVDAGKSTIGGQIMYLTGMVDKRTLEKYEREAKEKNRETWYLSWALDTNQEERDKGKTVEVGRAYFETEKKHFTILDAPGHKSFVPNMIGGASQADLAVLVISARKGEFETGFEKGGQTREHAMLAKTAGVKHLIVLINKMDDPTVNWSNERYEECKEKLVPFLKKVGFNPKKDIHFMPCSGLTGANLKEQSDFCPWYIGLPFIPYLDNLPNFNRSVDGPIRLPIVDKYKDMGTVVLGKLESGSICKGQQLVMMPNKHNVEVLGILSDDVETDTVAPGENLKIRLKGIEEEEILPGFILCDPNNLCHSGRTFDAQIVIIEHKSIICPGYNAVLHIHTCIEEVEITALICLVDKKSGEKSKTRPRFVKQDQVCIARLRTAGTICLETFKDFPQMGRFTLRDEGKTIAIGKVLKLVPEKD
Experimental: Cells were washed twice with ice-cold PBS and lysed in RIPA lysis buffer (Sigma) freshly supplemented with Halt™ Protease Inhibitor Cocktail (ThermoFisher) for 15 minutes on ice. The cell pellet was removed by centrifugation at 13,000 g at 4° C. for 15 minutes. Protein concentration was measured by BCA assay (Thermo Fisher Scientific). Proteins were denatured in NuPAGE LDS 4× sample buffer supplemented with reducing agents (Invitrogen). Typically, 10-20 µg of total protein was loaded per lane on a 4%-12% NuPAGE Bis-Tris gradient gel (Invitrogen) and analyzed by standard immunoblotting and imaged using Li-COR Odyssey CLx (LI-COR Biotechnology, Lincoln, NE). Primary antibodies used were: JAKI (Cell Signaling #3332S), JAK2 (#3230S), JAK3 (#8827S), TYK2 (#9312S), GSPT1 (#14980S), CRBN (#71810S), IKZF1 (Santa Cruz Biotechnology, SC-398265) and ACBT (Santa Cruz Biotechnology, SC-47778).

JAK2 = target: T2, JAK2 (Homo sapiens, UniProt O60674, I682F); assay: Immunoblot protein degradation in MHH-CALL-4 cells; format: cell-based
T2 construct: degradation of JAK2 and GSPT1 in MHH-CALL-4 cells; endogenous in cells; host or cells: MHH-CALL-4
T2 sequence (O60674 whole entry I682F): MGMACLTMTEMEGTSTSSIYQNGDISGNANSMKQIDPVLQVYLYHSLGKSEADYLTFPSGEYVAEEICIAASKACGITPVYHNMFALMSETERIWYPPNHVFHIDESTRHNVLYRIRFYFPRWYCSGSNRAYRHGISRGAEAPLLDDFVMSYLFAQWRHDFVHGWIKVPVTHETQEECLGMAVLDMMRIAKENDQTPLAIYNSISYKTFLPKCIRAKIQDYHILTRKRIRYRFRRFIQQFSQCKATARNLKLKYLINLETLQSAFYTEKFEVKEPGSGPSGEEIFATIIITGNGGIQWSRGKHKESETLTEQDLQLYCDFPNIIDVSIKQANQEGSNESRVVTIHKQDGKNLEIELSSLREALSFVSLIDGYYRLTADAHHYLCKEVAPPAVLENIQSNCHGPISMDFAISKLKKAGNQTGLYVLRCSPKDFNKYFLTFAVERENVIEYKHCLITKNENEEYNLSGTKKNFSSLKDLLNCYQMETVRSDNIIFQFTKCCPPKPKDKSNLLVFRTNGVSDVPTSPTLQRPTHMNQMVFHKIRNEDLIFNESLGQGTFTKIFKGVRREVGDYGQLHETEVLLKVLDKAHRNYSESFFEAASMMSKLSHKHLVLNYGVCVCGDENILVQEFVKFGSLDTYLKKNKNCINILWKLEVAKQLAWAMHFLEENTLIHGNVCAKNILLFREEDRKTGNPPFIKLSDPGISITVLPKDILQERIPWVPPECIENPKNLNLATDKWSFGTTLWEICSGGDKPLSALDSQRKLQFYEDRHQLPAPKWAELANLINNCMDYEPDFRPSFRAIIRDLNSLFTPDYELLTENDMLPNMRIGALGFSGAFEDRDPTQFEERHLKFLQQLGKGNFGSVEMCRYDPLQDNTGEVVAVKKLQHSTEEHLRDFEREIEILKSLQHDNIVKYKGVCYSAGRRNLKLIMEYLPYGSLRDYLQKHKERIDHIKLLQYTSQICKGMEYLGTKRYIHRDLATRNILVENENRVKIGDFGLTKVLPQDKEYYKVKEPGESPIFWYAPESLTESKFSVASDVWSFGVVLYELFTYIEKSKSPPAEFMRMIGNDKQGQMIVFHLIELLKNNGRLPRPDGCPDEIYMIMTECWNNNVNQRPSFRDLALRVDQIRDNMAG

[2] = tested on: JAK-STAT5 signaling pathway; assay: Phosphoflow analysis in MHH-CALL-4 cells with or without TSLP; format: cell-based, human; settings: 1 μM, one hour before TSLP 25 ng/mL for 30 minutes
Caco-2 cells = assay: Caco-2 cell permeability; format: in vitro ADME
Experimental: Compound Caco-2 cell permeability was determined using the Transwell® 0.4 μm polycarbonate membrane 96-well as described before (Uchida, et al. (2009) J Pharmacol Toxicol Methods 59(1): 39-43). Briefly, Caco-2 cells monolayers were incubated over 2 hours at 37° C. Fractions were collected from receivers (basal side, B), and concentrations were assessed by UPLC/MS (Waters; Milford, MA). All compounds were tested in triplicates. The A→B (or B→A) apparent permeability coefficients (Papp) of each compound were calculated using the equation, Papp=dQ/dt×1/AC0, where dQ/dt equals the flux of a drug across the monolayer, A equals the total insert well surface area, and CO is the initial concentration of substrate in the donor compartment.

| extent of degradation of GSPT1 (GSPT1) | extent of degradation of JAK2 (JAK2) | SMILES | cytotoxicity in PDX cells ex vivo [1] | killing of MHH-CALL-4 cells / cytotoxicity, in words (MHH-CALL-4) | also measured |
| --- | --- | --- | --- | --- | --- |
| – | preferential | CNCCCN1CCN(c2ccc3c(c2)C(=O)N(C2CCC(=O)NC2=O)C3=O)CC1 (stereo not shown) [Cmpd. no. 56] | – | intermediately effective | – |
| minimal activity on either target | minimal activity on either target | CC(=O)NCCCNC(=O)COc1cccc2c1C(=O)N(C1CCC(=O)NC1=O)C2=O (stereo not shown) [Cmpd. no. 59] | – | relatively low activity | – |
| minimal activity on either target | minimal activity on either target | CNCCCCNc1ccc2c(c1)C(=O)N(C1CCC(=O)NC1=O)C2=O (stereo not shown) [Cmpd. no. 80] | – | relatively low activity | – |
| degradation of GSPT1 was observed | – | N#CC[C@H](C1CCCC1)n1cc(-c2nc(Nc3ccc(C(=O)NCCCCNc4cccc5c4C(=O)N(C4CCC(=O)NC4=O)C5=O)cc3)nc3[nH]ccc23)cn1 (stereo partly shown) [Compound 5] | show cytotoxicity | – | EC50 (MHH-CALL-4; Homo sapiens, MHHCALL4, Table 6, no star, read-out: HHCALL4 (nM), MHHCALL4 EC50): 784 nM; JAK inhibition (phosphoflow) [2]: comparable JAK inhibition |

The remaining lines, values behind:

| SMILES | extent of degradation of GSPT1 (GSPT1) | extent of degradation of JAK2 (JAK2) | cytotoxicity in PDX cells ex vivo [1] | killing of MHH-CALL-4 cells / cytotoxicity, in words (MHH-CALL-4) | also measured |
| --- | --- | --- | --- | --- | --- |
| CC(=O)Nc1cc(Oc2ccc3c(nc(Nc4ccc(F)cc4F)n3C)c2C)ccn1 [CHZ868, reference compound] | – | – | not | – | – |
| CC(=O)NCCCNc1ccc2c(c1)C(=O)N(C1CCC(=O)NC1=O)C2=O (stereo not shown) [Cmpd. no. 53] | preferential | – | – | intermediately effective | – |
| CCS(=O)(=O)N1CC(CC#N)(n2cc(-c3nc(Nc4ccc(C(=O)NCCCCNc5cccc6c5C(=O)N(C5CCC(=O)NC5=O)C6=O)cc4)nc4[nH]ccc34)cn2)C1 (stereo not shown) [Compound 6] | – | – | show cytotoxicity | – | EC50 (MHH-CALL-4; Table 6, no star, read-out: HHCALL4 (nM), MHHCALL4 EC50): 1.52 nM; JAK inhibition (phosphoflow) [2]: comparable JAK inhibition |
| CCS(=O)(=O)N1CC(CC#N)(n2cc(-c3nc(Nc4ccc(C(=O)NCCN5CCN(c6ccc7c(c6)C(=O)N(C6CCC(=O)NC6=O)C7=O)CC5)cc4)nc4[nH]ccc34)cn2)C1 (stereo not shown) [Compound 8] | – | – | – | intermediately effective | killing of MHH-CALL-4 cells / cytotoxicity, in words (MHH-CALL-4; listed as compound 8): reduced activity |
| N#CC[C@H](C1CCCC1)n1cc(-c2ncnc3[nH]ccc23)cn1 [Ruxolitinib, reference compound] | – | – | – | – | EC50 (MHH-CALL-4; Homo sapiens, MHHCALL4, read-out: HHCALL4 (nM), MHHCALL4 EC50): 5800 nM |
| CCCn1cc(-c2nc(Nc3ccc(C(=O)NCCCCNc4cccc5c4C(=O)N(C4CCC(=O)NC4=O)C5=O)cc3)nc3[nH]ccc23)cn1 (stereo not shown) [SJ000988497] | – | – | – | – | Papp, Caco-2 assay (Caco-2 cells): 1.912 ×10⁻⁶ cm/s |
